Test results as given in patent US12479840B2, “HMG-CoA reductase degradation inducing compound” (Uppthera, priority 2020, dated 2025).

Molecular target: T1, HMG-CoA reductase (Homo sapiens, UniProt P04035)
T1 construct: endogenous in cells; host or cells: HepG2 (Korea Cell Line Bank)
T1 sequence (P04035 1-888): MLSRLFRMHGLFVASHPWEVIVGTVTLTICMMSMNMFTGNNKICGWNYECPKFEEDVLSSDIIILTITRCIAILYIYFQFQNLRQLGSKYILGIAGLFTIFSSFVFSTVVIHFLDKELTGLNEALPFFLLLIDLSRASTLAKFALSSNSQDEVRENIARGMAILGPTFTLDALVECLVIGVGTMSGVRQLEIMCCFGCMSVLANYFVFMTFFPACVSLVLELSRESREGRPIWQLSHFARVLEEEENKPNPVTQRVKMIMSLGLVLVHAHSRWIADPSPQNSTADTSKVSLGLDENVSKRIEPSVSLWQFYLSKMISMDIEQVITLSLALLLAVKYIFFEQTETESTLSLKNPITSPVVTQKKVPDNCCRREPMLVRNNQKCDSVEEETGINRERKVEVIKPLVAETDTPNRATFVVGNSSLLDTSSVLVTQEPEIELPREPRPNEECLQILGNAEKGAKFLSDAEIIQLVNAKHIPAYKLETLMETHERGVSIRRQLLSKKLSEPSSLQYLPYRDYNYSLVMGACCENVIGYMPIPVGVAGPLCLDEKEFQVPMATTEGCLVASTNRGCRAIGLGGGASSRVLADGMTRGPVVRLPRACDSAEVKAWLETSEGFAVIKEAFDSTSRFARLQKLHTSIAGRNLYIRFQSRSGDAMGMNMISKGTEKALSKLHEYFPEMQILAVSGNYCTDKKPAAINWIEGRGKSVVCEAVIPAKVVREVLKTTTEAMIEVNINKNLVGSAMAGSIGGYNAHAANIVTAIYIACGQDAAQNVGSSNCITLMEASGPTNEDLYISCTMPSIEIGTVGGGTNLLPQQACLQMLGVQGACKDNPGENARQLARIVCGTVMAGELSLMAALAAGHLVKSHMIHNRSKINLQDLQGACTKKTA
Experiment: HMG-CoA reductase (HMGCR) degradation in HepG2 cells by western blotting
Type: cell-based
Conditions: treated for 18 hours, ratio of HMG-CoA reductase to GAPDH, read-out: DC50
How it was run: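 HepG2 cells (passage P105–P110) treated 18 hours with compounds in 10-point three-fold dilutions from 3 μM. RIPA lysates (15 μg protein, BCA-quantified) run on SDS-PAGE and immunoblotted for HMGCR (1:500) with GAPDH (1:20000) as loading control, primary antibodies 16 hours at 4° C.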

SMILES | DC50 [nM]
CN[C@@H](C)C(=O)N[C@H](C(=O)N1CCC[C@@H]1c1nc(C(=O)c2cccc(OCCOCCOCCNC(=O)O[C@H]3C[C@@H](C)C=C4C=C[C@H](C)[C@H](CC[C@@H]5C[C@@H](O[Si](C)(C)C(C)(C)C)CC(=O)O5)[C@H]43)c2)cs1)C1CCCCC1 [Compound 35, (1S,3R,7S,8S,8aR)-8-(2-((2R,4R)-4-((tert-butyldimethylsilyl)oxy)-6-oxotetrahydro-2H-pyran-2-yl)ethyl)-3,7-dimethyl-1,2,3,7,8,8a-hexahydronaphthalen-1-yl (2-(2-(2-(3-(2-((R)-1-((S)-2-cyclohexyl-2-((S)-2-(methylamino)propanamido)acetyl)pyrrolidin-2-yl)thiazole-4-carbonyl)phenoxy)ethoxy)ethoxy)ethyl)carbamate] | > 500
CN[C@@H](C)C(=O)N[C@H](C(=O)N1CCC[C@H]1c1nc(C(=O)c2cccc(OCCOCCOCCNC(=O)O[C@H]3C[C@@H](C)C=C4C=C[C@H](C)[C@H](CC[C@@H]5C[C@@H](O[Si](C)(C)C(C)(C)C)CC(=O)O5)[C@H]43)c2)cs1)C1CCCCC1 [Compound 36, (1S,3R,7S,8S,8aR)-8-(2-((2R,4R)-4-((tert-butyldimethylsilyl)oxy)-6-oxotetrahydro-2H-pyran-2-yl)ethyl)-3,7-dimethyl-1,2,3,7,8,8a-hexahydronaphthalen-1-yl (2-(2-(2-(3-(2-((S)-1-((S)-2-cyclohexyl-2-((S)-2-(methylamino)propanamido)acetyl)pyrrolidin-2-yl)thiazole-4-carbonyl)phenoxy)ethoxy)ethoxy)ethyl)carbamate] | < 50
CN[C@@H](C)C(=O)N[C@H](C(=O)N1CCC[C@H]1c1nc(C(=O)c2cccc(OCCOCCOCCOCCNC(=O)O[C@H]3C[C@@H](C)C=C4C=C[C@H](C)[C@H](CC[C@@H]5C[C@@H](O[Si](C)(C)C(C)(C)C)CC(=O)O5)[C@H]43)c2)cs1)C1CCCCC1 [Compound 37, (1S,3R,7S,8S,8aR)-8-(2-((2R,4R)-4-((tert-butyldimethylsilyl)oxy)-6-oxotetrahydro-2H-pyran-2-yl)ethyl)-3,7-dimethyl-1,2,3,7,8,8a-hexahydronaphthalen-1-yl (2-(2-(2-(2-(3-(2-((S)-1-((S)-2-cyclohexyl-2-((S)-2-(methylamino)propanamido)acetyl)pyrrolidin-2-yl)thiazole-4-carbonyl)phenoxy)ethoxy)ethoxy)ethoxy)ethyl)carbamate] | < 50
CN[C@@H](C)C(=O)N[C@H](C(=O)N1CCC[C@H]1c1nc(C(=O)c2cccc(OCCOCCOCCOCCOCCNC(=O)O[C@H]3C[C@@H](C)C=C4C=C[C@H](C)[C@H](CC[C@@H]5C[C@@H](O[Si](C)(C)C(C)(C)C)CC(=O)O5)[C@H]43)c2)cs1)C1CCCCC1 [Compound 38, (1S,3R,7S,8S,8aR)-8-(2-((2R,4R)-4-((tert-butyldimethylsilyl)oxy)-6-oxotetrahydro-2H-pyran-2-yl)ethyl)-3,7-dimethyl-1,2,3,7,8,8a-hexahydronaphthalen-1-yl (14-(3-(2-((S)-1-((S)-2-cyclohexyl-2-((S)-2-(methylamino)propanamido)acetyl)pyrrolidin-2-yl)thiazole-4-carbonyl)phenoxy)-3,6,9,12-tetraoxatetradecyl)carbamate] | < 50
C[C@H]1C=C2C=C[C@H](C)[C@H](CC[C@@H]3C[C@@H](O)CC(=O)O3)[C@H]2[C@@H](OC(=O)NCCOCCOCCNc2cccc3c2C(=O)N(C2CCC(=O)NC2=O)C3=O)C1 (stereo partly drawn) [Compound 40, (1S,3R,7S,8S,8aR)-8-(2-((2R,4R)-4-hydroxy-6-oxotetrahydro-2H-pyran-2-yl)ethyl)-3,7-dimethyl-1,2,3,7,8,8a-hexahydronaphthalen-1-yl (2-(2-(2-((2-(2,6-dioxopiperidin-3-yl)-1,3-dioxoisoindolin-4-yl)amino)ethoxy)ethoxy)ethyl)carbamate] | < 50
C[C@H]1C=C2C=C[C@H](C)[C@H](CC[C@@H]3C[C@@H](O)CC(=O)O3)[C@H]2[C@@H](OC(=O)NCCOCCOCCOCCOCCNc2cccc3c2C(=O)N(C2CCC(=O)NC2=O)C3=O)C1 (stereo partly drawn) [Compound 42, (1S,3R,7S,8S,8aR)-8-(2-((2R,4R)-4-hydroxy-6-oxotetrahydro-2H-pyran-2-yl)ethyl)-3,7-dimethyl-1,2,3,7,8,8a-hexahydronaphthalen-1-yl (14-((2-(2,6-dioxopiperidin-3-yl)-1,3-dioxoisoindolin-4-yl)amino)-3,6,9,12-tetraoxatetradecyl)carbamate] | < 50

The remaining lines, values ahead:

DC50 [nM] | SMILES
< 50 | CN[C@@H](C)C(=O)N[C@H](C(=O)N1CCC[C@H]1c1nc(C(=O)c2cccc(OCCOCCOCCOCCNC(=O)O[C@H]3C[C@@H](C)C=C4C=C[C@H](C)[C@H](CC[C@@H]5C[C@@H](O)CC(=O)O5)[C@H]43)c2)cs1)C1CCCCC1 [Compound 32, (1S,3R,7S,8S,8aR)-8-(2-((2R,4R)-4-hydroxy-6-oxotetrahydro-2H-pyran-2-yl)ethyl)-3,7-dimethyl-1,2,3,7,8,8a-hexahydronaphthalen-1-yl (2-(2-(2-(2-(3-(2-((S)-1-((S)-2-cyclohexyl-2-((S)-2-(methylamino)propanamido)acetyl)pyrrolidin-2-yl)thiazole-4-carbonyl)phenoxy)ethoxy)ethoxy)ethoxy)ethyl)carbamate]
< 50 | CN[C@@H](C)C(=O)N[C@H](C(=O)N1CCC[C@H]1c1nc(C(=O)c2cccc(OCCOCCOCCOCCOCCNC(=O)O[C@H]3C[C@@H](C)C=C4C=C[C@H](C)[C@H](CC[C@@H]5C[C@@H](O)CC(=O)O5)[C@H]43)c2)cs1)C1CCCCC1 [Compound 33, (1S,3R,7S,8S,8aR)-8-(2-((2R,4R)-4-hydroxy-6-oxotetrahydro-2H-pyran-2-yl)ethyl)-3,7-dimethyl-1,2,3,7,8,8a-hexahydronaphthalen-1-yl (14-(3-(2-((S)-1-((S)-2-cyclohexyl-2-((S)-2-(methylamino)propanamido)acetyl)pyrrolidin-2-yl)thiazole-4-carbonyl)phenoxy)-3,6,9,12-tetraoxatetradecyl)carbamate]
> 500 | CN[C@@H](C)C(=O)N[C@H](C(=O)N1CCC[C@@H]1c1nc(C(=O)c2cccc(OCCOCCOCCNC(=O)O[C@H]3C[C@@H](C)C=C4C=C[C@H](C)[C@H](CC[C@@H]5C[C@@H](O)CC(=O)O5)[C@H]43)c2)cs1)C1CCCCC1 [Compound 34, (1S,3R,7S,8S,8aR)-8-(2-((2R,4R)-4-hydroxy-6-oxotetrahydro-2H-pyran-2-yl)ethyl)-3,7-dimethyl-1,2,3,7,8,8a-hexahydronaphthalen-1-yl (2-(2-(2-(3-(2-((R)-1-((S)-2-cyclohexyl-2-((S)-2-(methylamino)propanamido)acetyl)pyrrolidin-2-yl)thiazole-4-carbonyl)phenoxy)ethoxy)ethoxy)ethyl)carbamate]
> 500 | C[C@H]1C=C2C=C[C@H](C)[C@H](CC[C@@H]3C[C@@H](O)CC(=O)O3)[C@H]2[C@@H](OC(=O)NCCOCCOCCOCCNc2ccccc2)C1 [Compound 39, (1S,3R,7S,8S,8aR)-8-(2-((2R,4R)-4-hydroxy-6-oxotetrahydro-2H-pyran-2-yl)ethyl)-3,7-dimethyl-1,2,3,7,8,8a-hexahydronaphthalen-1-yl (2-(2-(2-(2-(phenylamino)ethoxy)ethoxy)ethoxy)ethyl)carbamate]
< 50 | C[C@H]1C=C2C=C[C@H](C)[C@H](CC[C@@H]3C[C@@H](O)CC(=O)O3)[C@H]2[C@@H](OC(=O)NCCOCCOCCOCCNc2cccc3c2C(=O)N(C2CCC(=O)NC2=O)C3=O)C1 (stereo partly drawn) [Compound 41, (1S,3R,7S,8S,8aR)-8-(2-((2R,4R)-4-hydroxy-6-oxotetrahydro-2H-pyran-2-yl)ethyl)-3,7-dimethyl-1,2,3,7,8,8a-hexahydronaphthalen-1-yl (2-(2-(2-(2-((2-(2,6-dioxopiperidin-3-yl)-1,3-dioxoisoindolin-4-yl)amino)ethoxy)ethoxy)ethoxy)ethyl)carbamate]
< 50 | C[C@H]1C=C2C=C[C@H](C)[C@H](CC[C@@H]3C[C@@H](O)CC(=O)O3)[C@H]2[C@@H](OC(=O)NCCOCCOCCOCCOCCOCCNc2cccc3c2C(=O)N(C2CCC(=O)NC2=O)C3=O)C1 (stereo partly drawn) [Compound 43, (1S,3R,7S,8S,8aR)-8-(2-((2R,4R)-4-hydroxy-6-oxotetrahydro-2H-pyran-2-yl)ethyl)-3,7-dimethyl-1,2,3,7,8,8a-hexahydronaphthalen-1-yl (17-((2-(2,6-dioxopiperidin-3-yl)-1,3-dioxoisoindolin-4-yl)amino)-3,6,9,12,15-pentaoxaheptadecyl)carbamate]
